According to patent US7423181B2, “Aminoalkoxy-functional chalcones” (Lica Pharmaceuticals A/S, priority 2002, dated 2008):
Where two headings read alike, the source gives them in different places.

Key:
[1] = system: Plasmodium falciparum DD2(Cq-res); conditions: read-out: Plasmodium falciparum IC50
[2] = system: Plasmodium falciparum K1(Cq-res); conditions: read-out: Plasmodium falciparum IC50
[3] = Determination of metabolic stability (liver microsomes); format: in vitro ADME; conditions: rat liver microsomes, 20 μM, 15 min
Method in brief: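 Wistar rat liver microsomes (0.25 mg/ml) in 2% sodium bicarbonate with NADPH-generating system plus UDPGA for glucuronidation; test article at 20 μM final, 15 min at 37° C, after 5 min pre-incubation. Reactions stopped with acetonitrile; remaining compound analysed by HPLC against microsome-free blanks, triplicates.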

[4] = mice
Plasmodium berghei K173 = conditions: multiple oral administrations, NMRI female mice, FIG. 7
[5] = system: Plasmodium falciparum 3D7; assay: Plasmodium falciparum assay; format: cell-based
[6] = system: Plasmodium falciparum 7G8(Cq-res); conditions: read-out: Plasmodium falciparum IC50

Question: For CN(C)CCOc1ccc(-c2ccccc2C(F)(F)F)cc1/C=C/C(=O)c1ccccc1CN(C)C [Compound C130, (E)-3-[4-(2-Dimethylamino-ethoxy)-2′-trifluoromethyl-biphenyl-3-yl]-1-(2-dimethylaminomethyl-phenyl)-propenone], which IC50 [1] is on record?
Answer: The IC50 was 60 nM.

Question: What about the IC50 [2] of the same molecule?
Answer: Its IC50 is 40 nM.

Question: And the “Metabolic turn-over in vitro” value [3]?
Answer: Its value is 6%.

Question: What about the Metabolic turn-over [4] of the same molecule?
Answer: Its Metabolic turn-over is 77%.

Question: What about the “effect on development of the infection” value (Plasmodium berghei K173) of the same molecule?
Answer: Its value is “inhibit the development of the infection”.

Question: And the IC50 ([5]; 3D7(Cq-sen) (Table 3), read-out: Plasmodium falciparum IC50)?
Answer: The IC50 was 30 nM.

Question: What about the IC50 ([5]; Plasmodium falciparum 3D7 (Table 2), read-out: IC50) of the same molecule?
Answer: Its IC50 is 30 nM.

Question: What about the “times more potent than LicA” value ([5]; dose-response curve at Plasmodium falciparum, FIG. 4) of the same molecule?
Answer: Its value is 213 times.

Question: And the IC50 [6]?
Answer: Its IC50 is 50 nM.
